Literature values as cited in patent US8791095B2, “Steroidal CYP17 inhibitors/antiandrogens” (Tokai Pharmaceuticals, Inc., priority 2009, dated 2014).

Experiments:
[1] = molecular target: T1, human CYP17 enzyme (Homo sapiens, UniProt P05093); details: read-out: IC50, inhibition of human CYP17 enzyme
T1 sequence (P05093 1-508): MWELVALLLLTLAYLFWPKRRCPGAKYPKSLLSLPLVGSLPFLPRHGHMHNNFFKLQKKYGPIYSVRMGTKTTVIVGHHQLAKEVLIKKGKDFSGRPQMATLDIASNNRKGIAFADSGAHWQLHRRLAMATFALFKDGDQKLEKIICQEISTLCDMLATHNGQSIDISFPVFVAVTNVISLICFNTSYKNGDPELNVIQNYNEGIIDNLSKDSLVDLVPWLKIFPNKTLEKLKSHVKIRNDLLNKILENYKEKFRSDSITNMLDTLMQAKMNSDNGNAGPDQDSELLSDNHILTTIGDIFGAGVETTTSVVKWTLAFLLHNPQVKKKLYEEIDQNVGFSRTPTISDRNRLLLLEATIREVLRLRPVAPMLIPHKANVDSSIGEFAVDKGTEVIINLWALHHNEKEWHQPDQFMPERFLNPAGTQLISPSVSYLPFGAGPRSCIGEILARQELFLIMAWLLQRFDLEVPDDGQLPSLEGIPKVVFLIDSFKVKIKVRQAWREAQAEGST

[2] = tested on: LAPC4 human prostate tumor xenograft; details: for inhibition of growth of LAPC4 xenograft (in words): in vivo

In the case of `C[C@]12CC[C@H](O)CC1=CC[C@@H]1[C@@H]2CC[C@]2(C)C(n3cnc4ccccc43)=CC[C@@H]12` [Compound 1, 3β-hydroxy-17-(1H-benzimidazole-1-yl)androsta-5,16-diene], the IC50 [1] is given as 50 nM, the “conversion into a metabolite” value (metabolite tentatively identified as 17-(1H-benzimidazol-1-yl)androsta-3-one) is given as “rapidly converted into a metabolite” and the peak plasma level (mice, s.c. 50 mg/kg) is given as 16.82 ng/mL. The “detectability in plasma at 8 hours” value (mice, s.c. 50 mg/kg) was “neither was detectable”, the “efficacy compared with castration” value ([2]; 50 mg/kg, twice daily) was “significantly more effective than castration” and the “reduction in the mean final tumor volume compared with controls” value ([2]; 50 mg/kg, twice daily, P=0.00065) was 93.8%. For the same molecule, the “inhibition of growth of LAPC4 xenograft (in words)” value [2] was “very effective”.

In the case of `C[C@]12CC[C@H](O)CC1=CC[C@@H]1[C@@H]2CC[C@]2(C)C(c3cccnc3)=CC[C@@H]12` [abiraterone, 3β-hydroxy-17-(pyrid-3-yl)androsta-5,16-diene], the IC50 [1] is listed as 3 to 6 nM.

In the case of `CC12CCC(O)CC1=CCC1C2CCC2(C)C(c3cncnc3)=CCC12` (stereo not drawn) [Compound 3, 3β-hydroxy-17-(5′-pyrimidyl)androsta-5,16-diene], the IC50 [1] is listed as 500 nM.

For `C[C@]12CCC(=O)C=C1CCC1C2CC[C@]2(C)C(n3cnc4ccccc43)=CCC12` (stereo partly shown) [Compound 2, 17-(1H-benzimidazole-1-yl)androsta-4,16-diene-3-one], the peak plasma level (mice, s.c. 50 mg/kg) is given as 5.15 ng/mL, the “terminal half-life in plasma” value (mice, s.c. 50 mg/kg) is given as 39.93 min and the “detectability in plasma at 8 hours” value (mice, s.c. 50 mg/kg) is given as “neither was detectable”. For the same molecule, the “inhibition of growth of LAPC4 xenograft (in words)” value [2] was “ineffective”.
